Reference: paper PMC6222558, “Synthesis and Evolution of Berberine Derivatives as a New Class of Antiviral Agents against Enterovirus 71 through the MEK/ERK Pathway and Autophagy” (Molecules : A Journal of Synthetic Chemistry and Natural …, 2018)

Assays:
EV71 VP1 RNA = EV71 VP1 RNA by one-step qRT-PCR in infected Vero cells; type: cell-based, enterovirus 71 (EV71); conditions: Vero cells infected with H strain; 24 h; better than BBR
Experimental: To further confirm the anti-EV71 activity, the VP1 down-regulatory activity of 2d was examined in Vero cells infected with H strain of EV71, in comparison with that of BBR. […] Accordingly, VP1 capsid protein expression was also analyzed to examine its effect on EV71 biological synthesis.
Vero cells (9 × 10^5 cells/well) were plated into 6-well culture plates and incubated for 16 h. The medium was removed and cells were infected with EV71 for 1 h (H). Various concentrations of compound 2d and BBR were supplemented for incubation of another 24 h. Total RNA of the infected cells was isolated using the RNeasy Mini kit (QIAGEN, Hilden, Germany) and the information of the primer was listed in the Table 2.
One-step qRT-PCR was performed with SuperScript III Platinum SYBR Green One-step RT-PCR Kit (Invitrogen, Carlsbad, CA, USA) using the ABI 7500 Fast real-time PCR system (Applied Biosystems, Carlsbad, CA, USA). PCR assay was carried out in a 25 μL volume and the target fragment amplification was carried out as follows: reverse transcription at 50 °C for 3 min; initial activation of HotStar Taq DNA Polymerase at 95 °C for 10 min; 40 cycles in two steps: 95 °C for 15 s, 60 °C for 30 s.

[1] = test system: MEK/ERK signaling pathway; experiment: Western blot of MEK/ERK phosphorylation in EV71-infected Vero cells; type: cell-based, African green monkey; conditions: EV71 H, MOI = 0.1; 24 h treatment
Source text: The activation of the MEK/ERK signaling pathway has been certified to play an essential role in EV71 life cycle and pathogenesis in various cell types. […] To learn whether or not 2d would still act through MEK/ERK pathway as its parent BBR does, the inhibition experiment of EV71 via this signaling pathway was done with 2d using BBR as the reference. […] We can conclude that compound 2d inhibited the replication of EV71 through down-regulating MEK/ERK signaling pathway.
Cells were lysed in the M-PER mammalian protein extraction reagent (Thermo, Rockford, IL, USA) containing halt protease inhibitor single-use cocktail (Thermo). The protein concentration was determined by BCA Protein Assay Kit (Thermo). Equal amount of samples (15 μg proteins) were denatured and applied to sodium dodecyl sulfate-polyacrylamide gel electrophoresis (SDS-PAGE), and then electrophoresis products were transferred to a polyvinylidenefluoride (PVDF) film and blocked by 5% (w/v) milk or BSA at room temperature. An hour later, PVDF membranes were incubated at room temperature with specific primary antibody. After a standard washing, membranes were incubated with horse radish peroxidase (HRP)-labeled secondary antibody. The signals were detected using ECL detection kit (GE Healthcare Life Sciences, Pittsburgh, PA, USA). […]

[2] = test system: EV71 BrCr strain (VR-1775, genotype A); experiment: CPE inhibition assay for anti-EV71, BrCr strain; type: cell-based, enterovirus 71 (EV71); conditions: Enterovirus A, EV71; Vero cells; CPE; calculated on the organic part; n = 3; read-out: BrCr Strain IC50
How it was run: (§1)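 Vero cells infected with 100 × TCID50 EV71 for 1 h at 37 °C in serum-free medium, unbound virus removed, then compounds added for 72 h. IC50 from inhibition of virus-induced CPE; TC50 as concentration giving 50% CPE at 72 h, with selectivity index; crystal violet staining for imaging.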

[3] = test system: EV71 H strain (VR-1432, genotype C2); experiment: CPE inhibition assay for anti-EV71, H strain; type: cell-based, enterovirus 71 (EV71); conditions: Enterovirus A, EV71; Vero cells; CPE; calculated on the organic part; n = 3; read-out: H Strain IC50
How it was run: as §1

## COc1ccc2cc3[n+](cc2c1OCC(=O)OCc1ccccc1)CCc1cc2c(cc1-3)OCO2 [2d, 2,3-Methylenedioxy-9-benzyloxyformylmethylenoxy-10-methoxyprotoberberine chloride]
EV71 VP1 RNA
  VP1 RNA expression: significantly reduced VP1 RNA expression in a dose-dependently way
[1]
  phosphorylation of MEK and ERK induced by EV71 infection: significantly inhibit the phosphorylation of both MEK and ERK
[2]
  IC50: 8.52 µM
[3]
  IC50: 12.4 µM
